According to the supplement of paper PMC10307832:

Experiments:
Experiment in all cases: relative viability (nuclei count vs DMSO), 5 days (fraction); higher = more cells survive
Motesanib + Vorinostat = compound: CC1(C)CNc2cc(NC(=O)c3cccnc3NCc3ccncc3)ccc21 [Motesanib] + O=C(CCCCCCC(=O)Nc1ccccc1)NO [Vorinostat] (partner 1 µM)
Procedure, shortened: (§1)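 One day after seeding in 1536-well plates, lung cancer cell lines were dosed by pin tool. Dosing was either single-drug or a fixed anchor-drug dose plus five library-drug doses (not always all listed) in √10 steps. After 5 days, nuclei were stained in one fix-and-stain step and counted on 4× images, and relative viability is the nuclei count of treated wells over that of vehicle wells, given as the median of duplicate plates.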

[1] = compound: C[C@@]1(C(=O)Nc2ccc(F)nc2)CCCN1c1nc(Nc2cc(C3CC3)n[nH]2)c2cccn2n1 + CCNC(=O)c1noc(-c2cc(C(C)C)c(O)cc2O)c1-c1ccc(CN2CCOCC2)cc1 [Luminespib] (partner 0.01 µM)
Procedure, shortened: as §1

[2] = compound: C[C@@]1(C(=O)Nc2ccc(F)nc2)CCCN1c1nc(Nc2cc(C3CC3)n[nH]2)c2cccn2n1 + Cc1cc(Nc2cc(N3CCN(C)CC3)nc(Sc3ccc(NC(=O)C4CC4)cc3)n2)n[nH]1 [Tozasertib] (partner 0.1 µM)
Procedure, shortened: as §1

[3] = compound: C[C@@]1(C(=O)Nc2ccc(F)nc2)CCCN1c1nc(Nc2cc(C3CC3)n[nH]2)c2cccn2n1 + O=C(c1cc(Cc2n[nH]c(=O)c3ccccc23)ccc1F)N1CCN(C(=O)C2CC2)CC1 [Olaparib] (partner 8 µM)
Procedure, shortened: as §1

Cell Line | relative viability (Motesanib + Vorinostat; first compound 0.01 µM) | relative viability (Motesanib + Vorinostat; first compound 0.03162 µM) | relative viability (Motesanib + Vorinostat; first compound 0.1 µM) | relative viability (Motesanib + Vorinostat; first compound 0.3162 µM) | relative viability (Motesanib + Vorinostat; first compound 1 µM) | relative viability ([1]; first compound 0.04 µM) | relative viability ([1]; first compound 0.1265 µM) | relative viability ([1]; first compound 0.4 µM) | relative viability ([1]; first compound 1.265 µM) | relative viability ([2]; first compound 0.04 µM) | relative viability ([2]; first compound 0.1265 µM) | relative viability ([2]; first compound 0.4 µM) | relative viability ([2]; first compound 1.265 µM) | relative viability ([3]; first compound 0.04 µM) | relative viability ([3]; first compound 0.1265 µM) | relative viability ([3]; first compound 0.4 µM) | relative viability ([3]; first compound 1.265 µM)
NCI-H727 | 1.12 | 1.29 | 1.39 | 1.26 | 1.29 | 0.34 | 0.319 | 0.249 | 0.249 | 0.525 | 0.355 | 0.352 | 0.379 | 0.746 | 0.506 | 0.476 | 0.416
NCI-H1355 | 0.635 | 0.659 | 0.707 | 0.702 | 0.593 | 0.669 | 0.517 | 0.577 | 0.696 | 0.551 | 0.438 | 0.323 | 0.526 | 0.661 | 0.59 | 0.561 | 0.572
HOP-62 | 0.668 | 0.677 | 0.599 | 0.972 | 0.799 | 0.999 | 0.789 | 0.906 | 1.01 | 0.371 | 0.393 | 0.298 | 0.337 | 0.39 | 0.172 | 0.386 | 0.404
NCI-H2085 | 0.825 | 0.823 | 0.821 | 0.824 | 0.866 | 0.431 | 0.405 | 0.365 | 0.54 | 0.892 | 0.795 | 0.664 | 0.92 | 0.827 | 0.748 | 0.711 | 0.819
SW 900 | 0.542 | 0.404 | 0.574 | 0.649 | 0.59 | 0.18 | 0.198 | 0.188 | 0.155 | 0.525 | 0.551 | 0.464 | 0.29 | 1.02 | 0.895 | 0.721 | 0.717
